Assays:
Assay in all cases: relative viability (nuclei count vs DMSO), 5 days (fraction); higher = more cells survive
[1] = compound: C[C@]1(O)C[C@@H](c2nc(-c3ccc4ccc(-c5ccccc5)nc4c3)c3c(N)nccn32)C1 [Linsitinib]
In short: (§1)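 Vehicle-anchored 1536-well plates of lung cancer cell lines, held overnight at 37 °C, were pinned with five library-drug doses (not always all listed) spaced by √10. No medium change followed over the next 5 days, after which the cells were fixed, permeabilised and Hoechst-stained together and imaged at 4×. Nuclei were counted with MetaXpress, and viability is treated-well nuclei over vehicle-well nuclei, taken as a median across plates. Plates passed with control CV below 25% and at least one doubling.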

[2] = compound: Cc1ccc(C(=O)N(CCCN)[C@@H](c2nc3cc(Cl)ccc3c(=O)n2Cc2ccccc2)C(C)C)cc1 [Ispinesib]
In short: as §1

[3] = compound: C[C@]1(O)C[C@@H](c2nc(-c3ccc4ccc(-c5ccccc5)nc4c3)c3c(N)nccn32)C1 [Linsitinib] + CC(C)C[C@H](NC(=O)[C@H](Cc1ccccc1)NC(=O)c1cnccn1)B(O)O [Bortezomib] (partner 0.002 µM)
In short: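 Five library-drug doses in √10 steps were combined with a fixed anchor-drug dose, or a single drug was given alone, by pin tool to lung cancer cell lines in 1536-well plates the day after seeding. Nuclei were stained and counted after 5 days. Relative viability is the nuclei count in treated wells over that in vehicle wells, taken as the median of duplicate plates.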

Which relative viability ([1]; 0.01 µM) does the source give for UMC-11 here?
Its relative viability is 0.975.

What about the relative viability ([1]; 0.03162 µM) of the same cell line?
The relative viability was 0.854.

What about the relative viability ([1]; 0.1 µM) of the same cell line?
The relative viability was 1.02.

What about the relative viability ([1]; 0.3162 µM) of the same cell line?
The relative viability was 0.546.

What about the relative viability ([1]; 1 µM) of the same cell line?
The relative viability was 0.875.

And the relative viability ([1]; 1 µM, anchor plate)?
Its relative viability is 1.01.

And the relative viability ([2]; 0.001 µM)?
The relative viability was 1.01.

And the relative viability ([2]; 0.003162 µM)?
Its relative viability is 1.02.

What about the relative viability ([2]; 0.01 µM) of the same cell line?
Its relative viability is 0.835.

What about the relative viability ([2]; 0.03162 µM) of the same cell line?
Its relative viability is 0.32.

And the relative viability ([2]; 0.1 µM)?
The relative viability was 0.264.

And the relative viability ([3]; first compound 0.01 µM)?
Its relative viability is 0.693.

And the relative viability ([3]; first compound 0.03162 µM)?
The relative viability was 0.621.

And the relative viability ([3]; first compound 0.1 µM)?
Its relative viability is 0.829.

What about the relative viability ([3]; first compound 1 µM) of the same cell line?
Its relative viability is 0.752.
